Laboratory results from patent publication US12043597B2, “Crystalline polymorphs of Rivoceranib and Rivoceranib mesylate” (ASSIA CHEMICAL INDUSTRIES LTD., priority 2018, dated 2024).

Assay: Solid-state (polymorphic) stability of the crystalline form under humidity, temperature and mass pressure stress
Format: physicochemical
Description: As used herein, the term “stable” in relation to crystalline Rivoceranib and Rivoceranib mesylate refers to less than 20%, less than 10%, less than 5%, less than 2%, less than 1%, or less than 0.5% conversion of crystalline Rivoceranib or Rivoceranib mesylate to any other solid state form of Rivoceranib or Rivoceranib mesylate, respectively.
As discussed above, depending on which other solid state it is compared with, Form RT2 of Rivoceranib according to the present disclosure may have advantageous properties as described above. Particularly, crystalline Form RT2 of Rivoceranib mesylate of the present disclosure is stable, for example upon exposure to high humidity or high temperature or high mass pressure conditions, such as 60° C./100% RH for up to 7 days or 80% RH at room temperature for 2 days, or under 100° C. for 60 minutes or under mass pressure of 2 ton for 1 minute.

stability upon exposure to high humidity and temperature (60° C./100% RH for up to 7 days): stable | stability upon exposure to high humidity (80% RH at room temperature for 2 days): stable | stability upon exposure to high temperature (100° C. for 60 minutes): stable | stability under high mass pressure (mass pressure of 2 ton for 1 minute): stable
SMILES: CS(=O)(=O)O.N#CC1(c2ccc(NC(=O)c3cccnc3NCc3ccncc3)cc2)CCCC1 [Form RT2, N-[4-(1-Cyanocyclopentyl)phenyl]-2-(pyridin-4-ylmethylamino)pyridine-3-carboxamide methanesulfonate]
